Key:
CtRocCOR [1] = molecular target: T1, CtRocCOR (Chlorobaculum tepidum, UniProt Q8KC98); assay: GTPase activity assay; assay type: biochemical
T1 construct: gene CT1526; RocCOR tandem, AA 412-946, recombinant, homodimer; MTSSL spin-labelled for EPR

CtRocCOR [2] = molecular target: T1, CtRocCOR; assay: DEER pulse EPR inter-spin distance change upon nucleotide binding; details: 1 mM GppNHp, 150 mM NaCl, 30 mM Tris/HCl, 5 mM MgCl2, pH 7.5, 5% glycerol, 50 K; protein spin-labelled with MTSSL at native Cys600 (C600R1)

T1 sequence (Q8KC98 entry or part of it): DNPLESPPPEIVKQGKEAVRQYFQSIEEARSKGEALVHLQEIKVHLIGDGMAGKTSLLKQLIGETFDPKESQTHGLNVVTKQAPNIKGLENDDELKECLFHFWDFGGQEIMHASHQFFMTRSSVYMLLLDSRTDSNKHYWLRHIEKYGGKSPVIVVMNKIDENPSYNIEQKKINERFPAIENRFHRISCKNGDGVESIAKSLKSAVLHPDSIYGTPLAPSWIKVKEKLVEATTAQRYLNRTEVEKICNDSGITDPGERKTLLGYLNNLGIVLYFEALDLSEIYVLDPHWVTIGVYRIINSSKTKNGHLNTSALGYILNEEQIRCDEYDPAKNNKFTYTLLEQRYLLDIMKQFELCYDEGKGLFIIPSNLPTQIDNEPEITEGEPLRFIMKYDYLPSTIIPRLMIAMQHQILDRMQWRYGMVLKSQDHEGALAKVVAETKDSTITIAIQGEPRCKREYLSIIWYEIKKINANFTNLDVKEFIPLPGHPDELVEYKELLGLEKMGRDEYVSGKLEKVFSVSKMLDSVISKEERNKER

Row | SMILES | GTPase activity assay (CtRocCOR [1]) | DEER pulse EPR inter-spin distance change upon nucleotide binding (CtRocCOR [2])
1 | Nc1nc2c(ncn2[C@@H]2O[C@H](COP(=O)(O)OP(=O)(O)OP(=O)(O)O)[C@@H](O)[C@H]2O)c(=O)[nH]1 [GTP] | No significant impairment of GTPase activity by the mutations in comparison with wild-type | 
2 | Nc1nc2c(ncn2[C@@H]2O[C@H](COP(=O)(O)OP(=O)(O)NP(=O)(O)O)[C@@H](O)[C@H]2O)c(=O)[nH]1 [GppNHp] |  | in the presence of GppNHp, GDP·AlFx or GDP (Figure 2c) reveal changes upon nt binding

Source: article PMC4721548, “Conformational heterogeneity of the Roc domains in C. tepidum Roc–COR and implications for human LRRK2 Parkinson mutations” (Bioscience Reports, 2015)
